Experimental data taken from PubChem BioAssay AID248 (DTP/NCI, 2004).
Where “and” joins values, the source holds several entries; their conditions need not be identical. Identical values can stand only once. Toxic doses and inconclusive results are not listed. Rule as the data show it: active = T/C of 150% or more; inactive = T/C below 125%.

Tested on: L1210 leukemia ip in BDF1 mice, survival T/C
Assay: NCI In Vivo Anticancer Drug Screen. Data for tumor model L1210 Leukemia (intraperitoneal) in B6D2F1 (BDF1) mice
Settings: endpoint: mean survival time, higher = longer survival
Outline: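 Tumor was transplanted into mice, which were then dosed with test compound or vehicle alone. Survival was recorded for each group, and the treated figure was expressed relative to the control figure.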

[1] = dose: 100.0 mg/kg/injection, schedule: Q04DX002 (ip), vehicle: Klucel (hydroxypropylcellulose) (HPC)
[2] = dose: 200.0 mg/kg/injection, schedule: Q04DX002 (ip), vehicle: Klucel (hydroxypropylcellulose) (HPC)
[3] = dose: 400.0 mg/kg/injection, schedule: Q04DX002 (ip), vehicle: Klucel (hydroxypropylcellulose) (HPC)
[4] = dose: 100.0 mg/kg/injection, schedule: Q04DX003 (ip), vehicle: Klucel (hydroxypropylcellulose) (HPC)
[5] = dose: 200.0 mg/kg/injection, schedule: Q04DX003 (ip), vehicle: Klucel (hydroxypropylcellulose) (HPC)
[6] = dose: 400.0 mg/kg/injection, schedule: Q04DX003 (ip), vehicle: Klucel (hydroxypropylcellulose) (HPC)
[7] = dose: 100.0 mg/kg/injection, schedule: Q04DX003 (ip), vehicle: saline
[8] = dose: 200.0 mg/kg/injection, schedule: Q04DX003 (ip), vehicle: saline
[9] = dose: 100.0 mg/kg/injection, schedule: Q01DX009 (ip), vehicle: saline with Tween-80
[10] = dose: 100.0 mg/kg/injection, schedule: Q04DX003 (ip), vehicle: saline with Tween-80
[11] = dose: 200.0 mg/kg/injection, schedule: Q01DX009 (ip), vehicle: saline with Tween-80
[12] = dose: 200.0 mg/kg/injection, schedule: Q04DX003 (ip), vehicle: saline with Tween-80
[13] = dose: 400.0 mg/kg/injection, schedule: Q01DX009 (ip), vehicle: saline with Tween-80
[14] = dose: 400.0 mg/kg/injection, schedule: Q04DX003 (ip), vehicle: saline with Tween-80
[15] = dose: 100.0 mg/kg/injection, schedule: Q01DX001 (ip), vehicle: saline with Tween-80
[16] = dose: 200.0 mg/kg/injection, schedule: Q01DX001 (ip), vehicle: saline with Tween-80
[17] = dose: 400.0 mg/kg/injection, schedule: Q01DX001 (ip), vehicle: saline with Tween-80
[18] = dose: 75.0 mg/kg/injection, schedule: Q01DX001 (ip), vehicle: saline
[19] = dose: 150.0 mg/kg/injection, schedule: Q01DX001 (ip), vehicle: saline
[20] = dose: 300.0 mg/kg/injection, schedule: Q01DX001 (ip), vehicle: saline
[21] = dose: 50.0 mg/kg/injection, schedule: Q01DX009 (ip), vehicle: saline with Tween-80
[22] = dose: 100.0 mg/kg/injection, schedule: Q01DX001 (ip), vehicle: carboxymethylcellulose (CMC)
[23] = dose: 100.0 mg/kg/injection, schedule: Q01DX001 (ip), vehicle: saline
[24] = dose: 200.0 mg/kg/injection, schedule: Q01DX001 (ip), vehicle: carboxymethylcellulose (CMC)
[25] = dose: 200.0 mg/kg/injection, schedule: Q01DX001 (ip), vehicle: saline
[26] = dose: 400.0 mg/kg/injection, schedule: Q01DX001 (ip), vehicle: carboxymethylcellulose (CMC)
[27] = dose: 400.0 mg/kg/injection, schedule: Q01DX001 (ip), vehicle: saline

Measured: T/C

CCCCCCCCCCN(CCCCCCCCCC)S(=O)(=O)c1ccc(OC)c([N+](=O)[O-])c1
inactive: dose: 75.0 mg/kg/injection, schedule: Q01DX001 (ip), vehicle: other 100 % of control | dose: 150.0 mg/kg/injection, schedule: Q01DX001 (ip), vehicle: other 93 % of control | dose: 300.0 mg/kg/injection, schedule: Q01DX001 (ip), vehicle: other 90 % of control

CC(=O)c1ccc(Oc2ccccc2)cc1
inactive: [1] 104 % of control | [2] 93 % of control | [3] 110 % of control

O=C(O)COc1cc(F)ccc1[N+](=O)[O-]
inactive: [1] 91 % of control | [2] 102 % of control | [3] 107 % of control

CCc1nc(C)ncc1-c1ccc([N+](=O)[O-])cc1O
inactive: [4] 97 % of control | [5] 97 % of control | [6] 91 % of control

Cn1cnc2ncnn2c1=S
inactive: dose: 50.0 mg/kg/injection, schedule: Q01DX009 (ip), vehicle: saline 114 % of control | [7] 103 % of control | [8] 105 % of control

NC(N)=NCCN=C(N)N
inactive: dose: 15.0 mg/kg/injection, schedule: Q01DX Z (oral), vehicle: saline 97 % of control | dose: 30.0 mg/kg/injection, schedule: Q01DX Z (oral), vehicle: saline 103 % of control | dose: 60.0 mg/kg/injection, schedule: Q01DX Z (oral), vehicle: saline 101 % of control | dose: 120.0 mg/kg/injection, schedule: Q01DX Z (oral), vehicle: saline 95 % of control

O=C(Cn1ccc(O)cc1=O)c1cccs1
inactive: [9] 102 % of control | [10] 101 % of control | [11] 100 % of control | [12] 100 % of control | [13] 98 % of control | [14] 100 % of control

CC12CCC(O)CC1=CC=C1C2CCC2(C)C(OC(=O)c3ccccc3)CCC12 (centres undefined)
inactive: [15] 91 % of control | [16] 93 % of control | [17] 98 % of control

CCn1c(=O)c2ccccc2c2cc([N+](=O)[O-])ccc21
inactive: [4] 90 % of control | [5] 97 % of control | [6] 97 % of control

Nc1ccccc1SSc1ccccc1N
inactive: [1] 86 % of control | [2] 86 % of control

O=C(O)C1C2CC(O)C(C2)C1C(=O)O (centres undefined)
inactive: [15] 94 % of control | [9] 93 % of control | dose: 100.0 mg/kg/injection, schedule: Q01DX009 (ip), vehicle: saline 105 % of control | [7] 94 % of control | [16] 98 % of control | [11] 95 % of control | dose: 200.0 mg/kg/injection, schedule: Q01DX009 (ip), vehicle: saline 105 % of control | [8] 96 % of control | [17] 100 % of control | [13] 96 % of control | dose: 400.0 mg/kg/injection, schedule: Q01DX009 (ip), vehicle: saline 98 % of control | dose: 400.0 mg/kg/injection, schedule: Q04DX003 (ip), vehicle: saline 93 % of control

O=C1C2CC(CN3CCCCC23)C2CCCCN12 (centres undefined)
inactive: [18] 94 % of control | [19] 103 % of control | [20] 101 % of control

CC12CCC(CC1)C2CO (centres undefined)
inactive: [21] 105 % of control | [9] 98 % of control

Cc1cc(C)c(C(=O)CBr)c(C)c1
inactive: [22] 112 % of control | [23] 101 % of control | [24] 106 % of control | [25] 101 % of control | [26] 101 % of control | [27] 110 % of control

C=C(C)C1(C)C(=O)NC(=S)NC1=O
inactive: [18] 108 % of control | [19] 100 % of control | [20] 107 % of control

CC1(c2ccccc2)SC(C)(c2ccccc2)SC(c2ccccc2)(c2ccccc2)S1 (centres undefined)
inactive: dose: 100.0 mg/kg/injection, schedule: Q01DX001 (ip), vehicle: Klucel (hydroxypropylcellulose) (HPC) 100 % of control | dose: 200.0 mg/kg/injection, schedule: Q01DX001 (ip), vehicle: Klucel (hydroxypropylcellulose) (HPC) 98 % of control | dose: 400.0 mg/kg/injection, schedule: Q01DX001 (ip), vehicle: Klucel (hydroxypropylcellulose) (HPC) 91 % of control

CC(C)OC(=O)Nc1cccc(Cl)c1
inactive: dose: 50.0 mg/kg/injection, schedule: Q01DX009 (ip), vehicle: saline sonified 100 % of control | dose: 100.0 mg/kg/injection, schedule: Q01DX009 (ip), vehicle: saline sonified 101 % of control | dose: 100.0 mg/kg/injection, schedule: Q04DX003 (ip), vehicle: saline sonified 87 % of control | dose: 200.0 mg/kg/injection, schedule: Q01DX009 (ip), vehicle: saline sonified 99 % of control | dose: 200.0 mg/kg/injection, schedule: Q04DX003 (ip), vehicle: saline sonified 94 % of control | dose: 400.0 mg/kg/injection, schedule: Q04DX003 (ip), vehicle: saline sonified 94 % of control

C(=N\Nc1ccccc1)/C(=N\Nc1ccccc1)c1ccccc1
inactive: [10] 103 % of control | [12] 97 % of control | [14] 98 % of control

COc1c(O)c(O)cc2c[n+]3ccccc3c(C)c12
inactive: dose: 50.0 mg/kg/injection, schedule: Q01DX009 (ip), vehicle: Klucel (hydroxypropylcellulose) (HPC) 95 % of control

O=C1CC(c2ccccc2)NN1c1ccccc1 (centres undefined)
inactive: [21] 95 % of control and 97 % of control | [9] 100 % of control and 103 % of control | dose: 100.0 mg/kg/injection, schedule: Q04DX002 (ip), vehicle: alcohol 102 % of control | dose: 200.0 mg/kg/injection, schedule: Q04DX002 (ip), vehicle: alcohol 104 % of control | dose: 400.0 mg/kg/injection, schedule: Q04DX002 (ip), vehicle: alcohol 94 % of control

Nc1nc(=O)n(CC(=O)c2cccs2)cc1F
inactive: dose: 25.0 mg/kg/injection, schedule: Q01DX009 (ip), vehicle: saline with Tween-80 96 % of control | [21] 98 % of control and 87 % of control | [9] 96 % of control and 98 % of control | [10] 97 % of control | [12] 103 % of control | [14] 97 % of control

COC(=O)C1C(=O)CC2(C)CCCCC12 (centres undefined)
inactive: [1] 97 % of control | [2] 100 % of control | [3] 93 % of control

O=C(COc1ccccc1)N(O)c1ccc(/C=C/c2ccccc2)cc1
inactive: [22] 93 % of control | [24] 95 % of control | [26] 88 % of control

O=C(O)CCC(=O)c1cccc([N+](=O)[O-])c1
inactive: [21] 103 % of control | dose: 100.0 mg/kg/injection, schedule: Q01DX009 (ip), vehicle: Klucel (hydroxypropylcellulose) (HPC) 95 % of control | [9] 107 % of control | [4] 91 % of control | dose: 200.0 mg/kg/injection, schedule: Q01DX009 (ip), vehicle: Klucel (hydroxypropylcellulose) (HPC) 103 % of control | [11] 87 % of control | [5] 94 % of control | [6] 94 % of control

O=S1(=O)C=C2CCCCC21 (centres undefined)
inactive: dose: 75.0 mg/kg/injection, schedule: Q01DX001 (ip), vehicle: carboxymethylcellulose (CMC) 100 % of control

O=[N+]([O-])c1c[nH]c2ncnc(Cl)c12
inactive: dose: 50.0 mg/kg/injection, schedule: Q01DX001 (ip), vehicle: carboxymethylcellulose (CMC) 98 % of control | [22] 89 % of control | [24] 106 % of control

CCOC(=O)c1cnccc1C#N
inactive: [1] 88 % of control | [2] 100 % of control | [3] 100 % of control

Cc1cn(C2CCCO2)c(=O)nc1N (centres undefined)
inactive: dose: 50.0 mg/kg/injection, schedule: Q01DX001 (ip), vehicle: saline 103 % of control | [23] 97 % of control | [25] 95 % of control | [27] 101 % of control

O=c1c2ccccc2[nH]c(=S)n1-c1cccc(Cl)c1
inactive: [18] 93 % of control | [19] 89 % of control | [20] 91 % of control

COc1cccc(C)c1NC(=O)NCCCl
inactive: [4] 100 % of control | [5] 94 % of control | [6] 94 % of control
